Our source for the IC50 values is patent publication US10562912B2 (C&C Research Laboratories, priority 2013, dated 2020).

The structures appear in SMILES notation.

What all share (assay type): cell-based
For one assay, the target named is T1, STAT3 (Homo sapiens, UniProt P40763).
T1 construct: plasmid pSTAT3-TA-luc), which contains a stably operating STAT3 promoter; endogenous in cells
The assay can be described thus: STAT3 reporter gene assay (luciferase), LNCaP stable cell line (pSTAT3-TA-luc), IL-6 stimulation. The essentials:
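LNCaP cells stably carrying pSTAT3-TA-luc, in RPMI1640 with 3% DCC-FBS, were treated with compound and then stimulated with 10 ng/mL IL-6 for 24–48 h at 37 °C. Luciferase activity was measured in lysates. A parallel plate measured viability by CellTiter-Glo, with stimulated 0.1% DMSO wells as the positive control.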
(In general: In a reporter assay the amount or activity of a reporter protein is the signal.)

The test system of the next assay is LNCaP. Briefly: Cell growth inhibition assay, prostate cancer cell line LNCaP (medium with 10 ng/mL IL-6). The settings on record: Homo sapiens, medium supplemented with 10 ng/mL of IL-6, 10,000 cells/well.
A further assay deals with MDA-MB-231. Briefly: Cell growth inhibition assay, breast cancer cell line MDA-MB-231. The settings on record: Homo sapiens; MDA-MB-231 breast cancer cell line, 5,000 cells/well. The method, then: The inhibitory effects of the compounds of the present invention against the growth of cancer cells were evaluated as shown below. The cancer cell lines including stomach cancer cell line (AGS), breast cancer cell lines (MDA-MB-231, MDA-MB-468, and BT-549), prostate cancer cell lines (LNCaP and DU-145), colon cancer cell line (HCT116), ovarian cancer cell line (SW626), liver cancer cell line (Hep3B), kidney cancer cell line (ACHN), lung cancer cell line (NCI-H23) and blood cancer cell lines (HEL92.1.7 and U266) were cultured under the protocol provided by each supplier. A medium supplemented with 10 ng/mL of IL-6 was used for LNCaP, a prostate cancer cell line, when treated with a drug. Each type of cells to be used in experiments were sub-cultured in a 96-well plate by counting the exact number of cells using Tali™ Image-based Cytometer (Life Technologies). In a 96-well plate, AGS, HCT116, and DU-145 were employed with 3,000 cells/well; NCI-H23, SW626, Hep3B, ACHN, BT-549, MDA-MB-231, HEL92.1.7, and U266 were employed with 5,000 cells/well; and LNCaP and MDA-MB-468 were employed with 10,000 cells/well. The cells were treated with the compounds listed in Examples which were diluted in various concentrations. Upon completion of the compounds treatment, AGS, HCT116, SW626, DU145, NCI-H23, Hep3B, ACHN, BT-549, LNCaP, HEL92.1.7, and U266 cells were cultured at 37° C. under 5% CO2 for from 72 to 96 hours, and MDA-MB-231 and MDA-MB-468 cells were cultured at 37° C. in air for from 72 to 96 hours. Subsequently, the cells were observed under microscope and drug precipitation and particular findings were investigated and recorded. And then, the 96-well plate was placed at room temperature for 30 minutes, added with 20 μL/well of CellTiter-Glo solution (Cat No. G7573, Promega) and shaken for 10 minutes, followed by being subjected to the measurement using PHERAstar™ microplate reader (BMG LABTECH) according to the supplier's general luminometer protocol. Wells where only culture liquid added without cell plating were used as a negative control, whereas wells where culture liquid containing 0.1% DMSO instead of the compounds listed in Examples were used as a positive control.

T1 sequence (P40763 whole entry): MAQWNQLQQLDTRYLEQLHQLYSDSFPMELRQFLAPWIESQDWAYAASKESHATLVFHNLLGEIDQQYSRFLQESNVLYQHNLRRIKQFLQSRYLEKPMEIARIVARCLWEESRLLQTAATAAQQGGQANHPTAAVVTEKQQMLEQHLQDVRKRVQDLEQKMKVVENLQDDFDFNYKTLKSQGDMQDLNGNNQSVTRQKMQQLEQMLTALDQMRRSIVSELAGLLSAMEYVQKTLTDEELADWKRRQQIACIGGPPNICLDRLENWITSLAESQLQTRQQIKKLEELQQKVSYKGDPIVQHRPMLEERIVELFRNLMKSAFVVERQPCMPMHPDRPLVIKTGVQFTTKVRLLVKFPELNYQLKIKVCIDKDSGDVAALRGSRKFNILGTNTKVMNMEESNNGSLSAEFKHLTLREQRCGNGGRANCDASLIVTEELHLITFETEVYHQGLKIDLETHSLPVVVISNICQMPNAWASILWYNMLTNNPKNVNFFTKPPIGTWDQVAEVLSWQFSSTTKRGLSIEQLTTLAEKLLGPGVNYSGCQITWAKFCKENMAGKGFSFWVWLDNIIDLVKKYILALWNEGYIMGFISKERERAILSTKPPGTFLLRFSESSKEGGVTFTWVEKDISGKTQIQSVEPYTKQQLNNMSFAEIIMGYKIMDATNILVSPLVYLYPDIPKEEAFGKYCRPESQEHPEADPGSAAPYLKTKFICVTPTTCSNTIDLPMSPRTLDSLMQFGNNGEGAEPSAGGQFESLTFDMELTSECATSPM

On to `CC(C)(c1ccc(F)cc1)c1cc(Cl)cc(NC(=O)c2cc3cc(NS(C)(=O)=O)ccc3s2)c1` [Example 40, N-(3-chloro-5-(2-(4-fluorophenyl)propan-2-yl)phenyl)-5-(methylsulfonamido)benzo[b]thiophene-2-carboxamide], for which the values for the IC50 against STAT3, in the assay on LNCaP and in the assay with MDA-MB-231 were 0.076 µM, 0.37 µM and 0.006 µM, respectively.

As to `COc1cc(OC(F)(F)F)cc(C(C)(C)c2cc(NC(=O)c3cc4cc(NS(C)(=O)=O)ccc4s3)cc(OC(F)F)c2)c1` [Example 41, N-(3-(difluoromethoxy)-5-(2-(3-methoxy-5-(trifluoromethoxy)phenyl)propan-2-yl)phenyl)-5-(methylsulfonamido)benzo[b]thiophene-2-carboxamide], the values for the IC50 at STAT3, with LNCaP and in the assay on MDA-MB-231 were 0.028 µM, 0.11 µM and 0.024 µM, respectively.

In the case of `CC(C)(c1cc(Br)cc(NC(=O)c2cc3cc(NS(C)(=O)=O)ccc3s2)c1)c1cc(OCC(N)=O)ccc1F` [Example 44, N-(3-(2-(5-(2-amino-2-oxoethoxy)-2-fluorophenyl)propan-2-yl)-5-bromophenyl)-5-(methylsulfonamido)benzo[b]thiophene-2-carboxamide], the IC50 against STAT3 came to 1.4 µM; with LNCaP, 5.2 µM; with MDA-MB-231 it was 4 µM.

Consider `CC(C)(Oc1cccc(C(C)(C)c2cc(Br)cc(NC(=O)c3cc4cc(NS(C)(=O)=O)ccc4s3)c2)c1)C(N)=O` [Example 45, N-(3-(2-(3-((1-amino-2-methyl-1-oxopropan-2-yl)oxy)phenyl)propan-2-yl)-5-bromophenyl)-5-(methylsulfonamido)benzo[b]thiophene-2-carboxamide], for which the IC50 against STAT3 came out at 1.3 µM; in the assay on LNCaP it was 4.4 µM; in the assay on MDA-MB-231, 0.38 µM.

`CC(C)(c1cc(Br)cc(NC(=O)c2cc3cc(NS(C)(=O)=O)ccc3s2)c1)c1cccc(OC(F)F)c1` [Example 46, N-(3-bromo-5-(2-(3-(difluoromethoxy)phenyl)propan-2-yl)phenyl)-5-(methylsulfonamido)benzo[b]thiophene-2-carboxamide]: the results for the IC50 against STAT3, in the assay with LNCaP and in the assay on MDA-MB-231 were 0.082 µM, 0.13 µM and 0.029 µM, respectively.

For the compound `CC(C)(c1cc(Br)cc(NC(=O)c2cc3cc(NS(C)(=O)=O)ccc3s2)c1)c1cc(OC(F)(F)F)ccc1F` [Example 47, N-(3-bromo-5-(2-(2-fluoro-5-(trifluoromethoxy)phenyl)propan-2-yl)phenyl)-5-(methylsulfonamido)benzo[b]thiophene-2-carboxamide], the IC50 on STAT3 came out at 0.008 µM; in the assay with LNCaP, 0.031 µM; in the assay with MDA-MB-231, 0.006 µM.

On to `Cc1c(C(=O)Nc2cccc(C(C)(C)c3ccc(F)cc3)c2)sc2cc(NS(C)(=O)=O)ccc12` [Example 51, N-(3-(2-(4-fluorophenyl)propan-2-yl)phenyl)-3-methyl-6-(methylsulfonamido)benzo[b]thiophene-2-carboxamide], for which the IC50 stood at 0.55 µM against STAT3, 3.5 µM in the assay on LNCaP and 0.62 µM in the assay with MDA-MB-231.

With `Cc1c(C(=O)Nc2cccc(C(C)(C)c3ccc(F)cc3)c2)sc2ccc(NS(C)(=O)=O)cc12` [Example 52, N-(3-(2-(4-fluorophenyl)propan-2-yl)phenyl)-3-methyl-5-(methylsulfonamido)benzo[b]thiophene-2-carboxamide], the IC50 against STAT3 turned out to be 1.5 µM; with LNCaP it was 4.7 µM; in the assay with MDA-MB-231, 0.7 µM.

Take `CCC(CC)(c1ccc(F)cc1)c1cc(Br)cc(NC(=O)c2cc3cc(NS(C)(=O)=O)ccc3s2)c1` [Example 53, N-(3-bromo-5-(3-(4-fluorophenyl)pentan-3-yl)phenyl)-5-(methylsulfonamido)benzo[b]thiophene-2-carboxamide]: the IC50 worked out at 0.026 µM against STAT3, 0.07 µM in the assay with LNCaP and 0.022 µM in the assay on MDA-MB-231.

Regarding `CCC(CC)(c1cc(NC(=O)c2cc3ccc(NS(C)(=O)=O)cc3[nH]2)cc(OC)c1)c1cc(OC)cc(OC(F)(F)F)c1` [Example 55, N-(3-methoxy-5-(3-(3-methoxy-5-(trifluoromethoxy)phenyl)pentan-3-yl)phenyl)-6-(methylsulfonamido)-1H-indole-2-carboxamide], the IC50 turned out to be 0.16 µM on STAT3, 0.54 µM with LNCaP and 0.081 µM in the assay with MDA-MB-231.

As to `C#Cc1cc(NC(=O)c2cc3ccc(NS(C)(=O)=O)cc3[nH]2)cc(C(C)(C)c2ccc(F)cc2)c1` [Example 107, N-(3-ethynyl-5-(2-(4-fluorophenyl)propan-2-yl)phenyl)-6-(methylsulfonamido)-1H-indole-2-carboxamide], the IC50 amounted to 0.42 µM at STAT3, 1.2 µM with LNCaP and 0.29 µM in the assay with MDA-MB-231.

Turning to `C#Cc1cc(NC(=O)c2cc3cc(NS(C)(=O)=O)ccc3s2)cc(C(C)(C)c2ccc(F)cc2)c1` [Example 108, N-(3-ethynyl-5-(2-(4-fluorophenyl)propan-2-yl)phenyl)-5-(methylsulfonamido)benzo[b]thiophene-2-carboxamide], the results for the IC50 against STAT3, in the assay on LNCaP and in the assay on MDA-MB-231 were 0.078 µM, 0.31 µM and 0.073 µM, respectively.

Consider `C#Cc1cc(NC(=O)c2cc3cc(NS(C)(=O)=O)ccc3s2)cc(C(C)(C)c2ccc(F)cc2F)c1` [Example 109, N-(3-(2-(2,4-difluorophenyl)propan-2-yl)-5-ethynylphenyl)-5-(methylsulfonamido)benzo[b]thiophene-2-carboxamide], for which the results for the IC50 on STAT3, in the assay with LNCaP and with MDA-MB-231 were 0.078 µM, 0.42 µM and 0.09 µM, respectively.

For `CC(C)(c1ccc(F)cc1)c1cccc(NC(=O)c2sc3cc(NS(C)(=O)=O)ccc3c2Cl)c1` [Example 110, 3-chloro-N-(3-(2-(4-fluorophenyl)propan-2-yl)phenyl)-6-(methylsulfonamido)benzo[b]thiophene-2-carboxamide], the IC50 was 4.3 µM at STAT3, more than 10 µM in the assay on LNCaP and 3.3 µM with MDA-MB-231.

For the compound `CS(=O)(=O)Nc1ccc2c(Cl)c(C(=O)Nc3cccc(-c4ccc(F)cc4F)c3)sc2c1` [Example 111, 3-chloro-N-(2′,4′-difluoro-[1,1′-biphenyl]-3-yl)-6-(methylsulfonamido)benzo[b]thiophene-2-carboxamide], the 50% inhibitory concentration (IC50) was more than 10 µM on STAT3, more than 10 µM in the assay on LNCaP and 6.3 µM with MDA-MB-231.

As to `COc1cc(NS(C)(=O)=O)cc2cc(C(=O)Nc3cccc(-c4ccc(F)cc4F)c3)oc12` [Example 112, N-(2′,4′-difluoro-[1,1′-biphenyl]-3-yl)-7-methoxy-5-(methylsulfonamido)benzofuran-2-carboxamide], the IC50 on STAT3 is 6.8 µM; in the assay on LNCaP, 8.6 µM; in the assay with MDA-MB-231 it was more than 10 µM.

`COc1cc(NS(C)(=O)=O)cc2cc(C(=O)Nc3cccc(C(C)(C)c4ccc(F)cc4)c3)oc12` [Example 113, N-(3-(2-(4-fluorophenyl)propan-2-yl)phenyl)-7-methoxy-5-(methylsulfonamido)benzofuran-2-carboxamide]: the IC50 against STAT3 is 8.9 µM; in the assay with LNCaP, more than 10 µM; with MDA-MB-231, 6.4 µM.

As to `CC(C)(c1cccc(CN2CCNCC2)c1)c1cc(Br)cc(NC(=O)c2cc3cc(NS(C)(=O)=O)ccc3s2)c1` [Example 118, N-(3-bromo-5-(2-(3-(piperazin-1-ylmethyl)phenyl)propan-2-yl)phenyl)-5-(methylsulfonamido) benzo[b]thiophene-2-carboxamide], the IC50 on STAT3 is more than 10 µM; in the assay on LNCaP, more than 10 µM; in the assay on MDA-MB-231 it was 8.6 µM.

What is called IC50 is the concentration that inhibits the measured activity by half. Low values mean inhibition by little substance, high ones a need for much substance.
